Results on eleven compounds are retold here after patent US11679107B2 (Eisai R&D Management Co., Ltd., priority 2018, dated 2023).

Read-outs that look alike come from different tables or passages of the source.

Test [1] concerns Ad2 variant pre-mRNAs spliced in HeLa S3 nuclear extracts. Kind of test: In vitro splicing assay (IVS), RT-qPCR of spliced product. The test is classed as biochemical. The conditions noted are these: for IC50: geometric mean; for Ratio Ad2.1/2.2: ratio of IVS IC50 Ad2.1 to Ad2.2. An outline of the steps:
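Read-out is one-step TaqMan RT-qPCR of spliced Ad2 mRNA with Ftz as reference, normalized to DMSO and fit by non-linear regression. Reactions held HeLa S3 nuclear extract, 2 ng Ad2-derived pre-mRNA and test compound, with 15 min preincubation. Splicing was started with ATP-containing activation buffer and run 90 min at 30 °C.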

The test system of test [2] is NCI-H1568 cells (high MCL1). Briefly: Cell proliferation and viability, CellTiter-Glo, 72 hours. The format is cell-based. The conditions noted are these: NCIH1568.1; for CTGlo-ATS Mean MinResponse % 72 h NCIH1568.1: -100% = cidal, 0% = static, 100% = uninhibited growth; for GI50: geometric mean. Put shortly: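 RPMI-1640/10% FBS (Panc: + insulin, FBS 15%); 11-pt half-log dose, ~10 μM-100 pM, 0.1% DMSO; 37° C, 5% CO2; ATP luminescence read; % inhibition vs T0 and vehicle, −100% cidal to 100% uninhibited growth.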
On the technique in general: In ATP-based viability assays light output follows the ATP content of the culture.

In another test the target is T1, SF3b complexes (Homo sapiens, UniProt O75533+Q7RTV0).
T1 construct: endogenous in cells; host or cells: Nuclear extracts; A HeLa S3 extract preparation is described for the in vitro splicing assay
Briefly: Scintillation proximity assay (SPA) with [3H]-labelled pladienolide probe. The settings on record: SF3B1 (WT); geometric mean; read-out: SPA-ATS GMean IC50 (nM) SF3B1 (WT). The format is binding. Put shortly:
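SF3b complexes captured from nuclear extracts on anti-SF3B1 antibody SPA beads; test compounds pre-incubated 30 min before 2.5 nM [3H]-pladienolide probe added, then 30 min incubation. Bound probe read by scintillation; values from non-linear regression of concentration–response curves.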
(In a scintillation proximity assay essentially only radioactivity close to the scintillant gives light.)

[3] abbreviates: Ad2.1 pre-mRNA substrate, read-out: qPCR-IVS-ATS GMean IC50 (nM) Ad2.1.
Setting [4] is: Ad2.2 pre-mRNA substrate, read-out: qPCR-IVS-ATS GMean IC50 (nM) Ad2.2.
[5] abbreviates: NCI-H1568, 72 h, read-out: CTGlo-ATS GMean GI50 (nM) 72 h NCIH1568.1, 72 h.
Where [6] appears, read: NCI-H1568, read-out: CTGlo-ATS GMean GI50 (nM) 72 h NCIH1568.1, 72 h.

Broadly, the IC50 is the midpoint of a concentration-inhibition curve. As a reminder, the GI50 is the concentration at which growth is held to half of that of the control. Take `C/C(=C\c1cc(F)cc(N2CCN(C(=O)Cn3cccn3)CC2)c1)[C@H]1OC(=O)C[C@H](O)CC[C@H](C)[C@@H](OC(=O)N2CCCN(C)CC2)/C=C/[C@@H]1C` [Compound 225, [(2S,3S,4E,6R,7S,10R)-2-[(E)-1-[3-fluoro-5-[4-(2-pyrazol-1-ylacetyl)piperazin-1-yl]phenyl]prop-1-en-2-yl]-10-hydroxy-3,7-dimethyl-12-oxo-1-oxacyclododec-4-en-6-yl] 4-methyl-1,4-diazepane-1-carboxylate]: the figures for the IC50 (in test [1] (setting [3]); in test [1] (setting [4]); at SF3b complexes) were 7.56 nM, 22.4 nM and 18.2 nM, respectively. Further, the “Ratio Ad2.1/2.2” value in test [1] was 0.337. Moreover, in test [2] (72 h), the “CTGlo-ATS Mean MinResponse % 72 h NCIH1568.1” value is given as −73.768%. Moreover, the 50% growth inhibitory concentration (GI50) in test [2] (setting [5]) was 11 nM.
Take `C/C(=C\c1cc(F)cc(N2CCN(C(=O)Cn3cccn3)CC2)c1)[C@H]1OC(=O)C[C@H](O)CC[C@H](C)[C@@H](OC(=O)N2CCNC(=O)C2)/C=C/[C@@H]1C` [Compound 230, [(2S,3S,4E,6R,7S,10R)-2-[(E)-1-[3-fluoro-5-[4-(2-pyrazol-1-ylacetyl)piperazin-1-yl]phenyl]prop-1-en-2-yl]-10-hydroxy-3,7-dimethyl-12-oxo-1-oxacyclododec-4-en-6-yl] 3-oxopiperazine-1-carboxylate]: the IC50 in test [1] (setting [3]) amounted to 11.7 nM; in test [1] (setting [4]) it was 10.9 nM; on SF3b complexes, 12.9 nM. Also, in test [1], the “Ratio Ad2.1/2.2” value was 1.078. Besides, the “CTGlo-ATS Mean MinResponse % 72 h NCIH1568.1” value in test [2] (72 h) is −69.108%. Also, the 50% growth inhibitory concentration (GI50) in test [2] (setting [6]) came to 15.9 nM.
For the compound `C/C(=C\c1cc(F)cc(N2CCN(C(=O)Cn3cccn3)CC2)c1)[C@H]1OC(=O)C[C@H](O)CC[C@H](C)[C@@H](OC(=O)N2CC[C@@H](F)C2)/C=C/[C@@H]1C` [Compound 231, [(2S,3S,4E,6R,7S,10R)-2-[(E)-1-[3-fluoro-5-[4-(2-pyrazol-1-ylacetyl)piperazin-1-yl]phenyl]prop-1-en-2-yl]-10-hydroxy-3,7-dimethyl-12-oxo-1-oxacyclododec-4-en-6-yl] (3R)-3-fluoropyrrolidine-1-carboxylate], the IC50 in test [1] (setting [3]) is 513 nM; in test [1] (setting [4]), 5.28 nM; at SF3b complexes it was 26 nM. Moreover, in test [1], the “Ratio Ad2.1/2.2” value is reported as 97.051. Moreover, the “CTGlo-ATS Mean MinResponse % 72 h NCIH1568.1” value in test [2] (72 h) is −59.209%. In addition, the GI50 in test [2] (setting [6]) was determined as 22.7 nM.
`C/C(=C\c1cc(F)cc(N2CCN(C(=O)Cn3cccn3)CC2)c1)[C@H]1OC(=O)C[C@H](O)CC[C@H](C)[C@@H](OC(=O)N2CCN(C)C(C)(C)C2)/C=C/[C@@H]1C` [Compound 232, [(2S,3S,4E,6R,7S,10R)-2-[(E)-1-[3-fluoro-5-[4-(2-pyrazol-1-ylacetyl)piperazin-1-yl]phenyl]prop-1-en-2-yl]-10-hydroxy-3,7-dimethyl-12-oxo-1-oxacyclododec-4-en-6-yl] 3,3,4-trimethylpiperazine-1-carboxylate]: the IC50 in test [1] (setting [3]) stood at 15.3 nM; in test [1] (setting [4]), 9.5 nM; on SF3b complexes it was 5.01 nM. Besides, the “Ratio Ad2.1/2.2” value in test [1] is 1.613. In test [2] (72 h), the “CTGlo-ATS Mean MinResponse % 72 h NCIH1568.1” value is −78.974%. Moreover, the GI50 in test [2] (setting [6]) was 4.67 nM.
For `C/C(=C\c1cc(F)cc(N2CCN(C(=O)Cn3cccn3)CC2)c1)[C@H]1OC(=O)C[C@H](O)CC[C@H](C)[C@@H](OC(=O)N(C)C2CCN(C)CC2)/C=C/[C@@H]1C` [Compound 233, [(2S,3S,4E,6R,7S,10R)-2-[(E)-1-[3-fluoro-5-[4-(2-pyrazol-1-ylacetyl)piperazin-1-yl]phenyl]prop-1-en-2-yl]-10-hydroxy-3,7-dimethyl-12-oxo-1-oxacyclododec-4-en-6-yl] N-methyl-N-(1-methylpiperidin-4-yl)carbamate], the results for the IC50 (in test [1] (setting [3]); in test [1] (setting [4]); at SF3b complexes) were 5.87 nM, 6.05 nM and 2.46 nM, respectively. In test [1], the “Ratio Ad2.1/2.2” value was found to be 0.971. In addition, the “CTGlo-ATS Mean MinResponse % 72 h NCIH1568.1” value in test [2] (72 h) is −87.288%. In addition, the concentration for 50% growth inhibition (GI50) in test [2] (setting [6]) amounted to 1.98 nM.
As to `C/C(=C\c1cc(F)cc(N2CCN(C(=O)Cn3cccn3)CC2)c1)[C@H]1OC(=O)C[C@H](O)CC[C@H](C)[C@@H](OC(=O)N2CCN(CCO)CC2)/C=C/[C@@H]1C` [Compound 234, [(2S,3S,4E,6R,7S,10R)-2-[(E)-1-[3-fluoro-5-[4-(2-pyrazol-1-ylacetyl)piperazin-1-yl]phenyl]prop-1-en-2-yl]-10-hydroxy-3,7-dimethyl-12-oxo-1-oxacyclododec-4-en-6-yl] 4-(2-hydroxyethyl)piperazine-1-carboxylate], the results for the half-inhibitory concentration (IC50) (in test [1] (setting [3]); in test [1] (setting [4]); at SF3b complexes) were 13.1 nM, 16.5 nM and 3.16 nM, respectively. Also, the “Ratio Ad2.1/2.2” value in test [1] is 0.793. In addition, the “CTGlo-ATS Mean MinResponse % 72 h NCIH1568.1” value in test [2] (72 h) is −81.384%. Further, the GI50 in test [2] (setting [6]) stood at 5.2 nM.
As for `C/C(=C\c1cc(F)cc(N2CCN(C(=O)Cn3cccn3)CC2)c1)[C@H]1OC(=O)C[C@H](O)CC[C@H](C)[C@@H](OC(=O)N2CCN(C3CCCCCC3)CC2)/C=C/[C@@H]1C` [Compound 236, [(2S,3S,4E,6R,7S,10R)-2-[(E)-1-[3-fluoro-5-[4-(2-pyrazol-1-ylacetyl)piperazin-1-yl]phenyl]prop-1-en-2-yl]-10-hydroxy-3,7-dimethyl-12-oxo-1-oxacyclododec-4-en-6-yl] 4-cycloheptylpiperazine-1-carboxylate], the figures for the IC50 (in test [1] (setting [3]); in test [1] (setting [4]); at SF3b complexes) were 49.9 nM, 56.2 nM and 84 nM, respectively. The “Ratio Ad2.1/2.2” value in test [1] stood at 0.889. Further, the “CTGlo-ATS Mean MinResponse % 72 h NCIH1568.1” value in test [2] (72 h) was −90.096%. For the same compound, in test [2] (setting [6]), the 50% growth inhibitory concentration (GI50) came out at 9.92 nM.
`C/C(=C\c1cc(F)cc(N2CCN(C(=O)Cn3cccn3)CC2)c1)[C@H]1OC(=O)C[C@H](O)CC[C@H](C)[C@@H](OC(=O)N2CCN(c3ccncc3)CC2)/C=C/[C@@H]1C` [Compound 237, [(2S,3S,4E,6R,7S,10R)-2-[(E)-1-[3-fluoro-5-[4-(2-pyrazol-1-ylacetyl)piperazin-1-yl]phenyl]prop-1-en-2-yl]-10-hydroxy-3,7-dimethyl-12-oxo-1-oxacyclododec-4-en-6-yl] 4-pyridin-4-ylpiperazine-1-carboxylate]: the half-maximal inhibitory concentration (IC50) in test [1] (setting [3]) came to 18.6 nM; in test [1] (setting [4]), 9.33 nM; at SF3b complexes, 8.37 nM. Besides, the “Ratio Ad2.1/2.2” value in test [1] worked out at 1.989. Besides, in test [2] (72 h), the “CTGlo-ATS Mean MinResponse % 72 h NCIH1568.1” value is on record as −78.619%. Also, the GI50 in test [2] (setting [5]) came to 12 nM.
On to `C/C(=C\c1cc(F)cc(N2CCN(C(=O)Cn3cccn3)CC2)c1)[C@H]1OC(=O)C[C@H](O)CC[C@H](C)[C@@H](OC(=O)N2CCN(C3CCCCC3)CC2)/C=C/[C@@H]1C` [Compound 238, [(2S,3S,4E,6R,7S,10R)-2-[(E)-1-[3-fluoro-5-[4-(2-pyrazol-1-ylacetyl)piperazin-1-yl]phenyl]prop-1-en-2-yl]-10-hydroxy-3,7-dimethyl-12-oxo-1-oxacyclododec-4-en-6-yl] 4-cyclohexylpiperazine-1-carboxylate], for which the 50% inhibitory concentration (IC50) in test [1] (setting [3]) came to 32.2 nM; in test [1] (setting [4]), 68.1 nM; on SF3b complexes, 18.1 nM. Further, the “Ratio Ad2.1/2.2” value in test [1] stood at 0.473. Further, the “CTGlo-ATS Mean MinResponse % 72 h NCIH1568.1” value in test [2] (72 h) is −88.447%. Besides, the 50% growth inhibitory concentration (GI50) in test [2] (setting [5]) worked out at 5.79 nM.
With `C/C(=C\c1cc(F)cc(N2CCN(C(=O)Cn3cccn3)CC2)c1)[C@H]1OC(=O)C[C@H](O)CC[C@H](C)[C@@H](OC(=O)N(C)CCc2ccc(O)cc2)/C=C/[C@@H]1C` [Compound 239, [(2S,3S,4E,6R,7S,10R)-2-[(E)-1-[3-fluoro-5-[4-(2-pyrazol-1-ylacetyl)piperazin-1-yl]phenyl]prop-1-en-2-yl]-10-hydroxy-3,7-dimethyl-12-oxo-1-oxacyclododec-4-en-6-yl] N-[2-(4-hydroxyphenyl)ethyl]-N-methylcarbamate], the concentration for half-maximal inhibition (IC50) in test [1] (setting [3]) came to 103 nM; in test [1] (setting [4]), 48 nM; on SF3b complexes, 150 nM. Also, in test [1], the “Ratio Ad2.1/2.2” value is reported as 2.151. The “CTGlo-ATS Mean MinResponse % 72 h NCIH1568.1” value in test [2] (72 h) is given as −77.758%. For the same compound, the GI50 in test [2] (setting [5]) was 63.5 nM.
Consider `C/C(=C\c1cc(F)cc(N2CCN(C(=O)Cn3cccn3)CC2)c1)[C@H]1OC(=O)C[C@H](O)CC[C@H](C)[C@@H](OC(=O)N2CCN(Cc3cccc(O)c3)CC2)/C=C/[C@@H]1C` [Compound 251, [(2S,3S,4E,6R,7S,10R)-2-[(E)-1-[3-fluoro-5-[4-(2-pyrazol-1-ylacetyl)piperazin-1-yl]phenyl]prop-1-en-2-yl]-10-hydroxy-3,7-dimethyl-12-oxo-1-oxacyclododec-4-en-6-yl] 4-[(3-hydroxyphenyl)methyl]piperazine-1-carboxylate], for which the IC50 in test [1] (setting [3]) worked out at 49.7 nM; in test [1] (setting [4]) it was 28.1 nM; on SF3b complexes, 52.4 nM. The “Ratio Ad2.1/2.2” value in test [1] came out at 1.765. Also, in test [2] (72 h), the “CTGlo-ATS Mean MinResponse % 72 h NCIH1568.1” value is −87.236%. Also, in test [2] (setting [6]), the concentration for 50% growth inhibition (GI50) was 13.4 nM.
